Measurements published in PubChem BioAssay AID1552 (Sanford-Burnham Center for Chemical Genomics, 2009).
Activity calls are given as the source filed them. The rule behind the calls is not given here.

target: Ubiquitin-conjugating enzyme E2 N (Homo sapiens) (UniProt P61088); assay: NMR detection of UBE2N ligand binding – biophysical, purified protein (AID 1552); settings: NMR binding to purified UBE2N
Sequence (P61088 whole entry, looked up): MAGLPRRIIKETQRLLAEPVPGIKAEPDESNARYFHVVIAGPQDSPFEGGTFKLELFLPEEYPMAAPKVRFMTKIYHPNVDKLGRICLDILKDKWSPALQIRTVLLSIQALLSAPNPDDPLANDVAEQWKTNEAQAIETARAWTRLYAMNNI

Structure (SMILES)	Kd
c1ccc(C2NCCc3[nH]cnc32)cc1 (stereo unspecified)	> 4 mM (inactive)
COc1cc(/C=C/C(=O)O)ccc1O	> 4 mM (inactive)
CC(=O)N1CCN(S(=O)(=O)c2ccccc2)CC1	> 4 mM (inactive)
Fc1cc2nccnc2cc1N1CCSCC1	> 4 mM (inactive)
Cn1nnc2cc(C(=O)Nc3cccnc3)ccc21	> 4 mM (inactive)
COc1ccc(N/C(N)=N\c2nc(C)cc(C)n2)cc1	> 4 mM (inactive)
Nc1ccc(-c2cnco2)cc1	> 4 mM (inactive)
COC(=O)[C@@H]1OC(=O)C2OC23[C@@]1(C)CCC1[C@]2(C)C(C[C@H](O)[C@]13C)C(C)(C)[C@H](OC(C)=O)C[C@@H]2OC(C)=O (stereo partly specified)	> 4 mM (inactive)
O=c1[nH]c(=O)n(-c2ccc(F)cc2)c(O)c1/C=C1/C=CC=N1	> 4 mM (inactive)
CCN1CCN(CCCNc2ncnc3nc[nH]c23)CC1	> 4 mM (inactive)
NC(=O)CC(=O)NC12CC3CC(CC(C3)C1)C2	> 4 mM (inactive)
CN(C)S(=O)(=O)Nc1ccc(Br)cc1F	> 4 mM (inactive)
CCOc1ccc2nc(NS(C)(=O)=O)sc2c1	> 4 mM (inactive)
Nc1cccc2nonc12	> 4 mM (inactive)
Clc1ccccc1-c1nc(-c2cccnc2)no1	> 4 mM (inactive)
O=C(Nc1nccs1)c1cccnc1	> 4 mM (inactive)
CC(=O)O[C@H]1CC[C@]2(C)C3CC[C@@]4(C)C(CC5O[C@@]6(CCC(C)CO6)[C@@H](C)C54)C3CC[C@@H]2C1 (stereo partly specified)	> 4 mM (inactive)
CSc1nsc(SCc2cnc(C)nc2N)n1	> 4 mM (inactive)
NC(=O)CC[C@H](N)C(=O)O	> 4 mM (inactive)
O=C(O)c1cccc(-n2cccc2)c1	> 4 mM (inactive)
Cc1ccccc1NC(=O)N1CCOCC1	> 4 mM (inactive)
Cc1c(C(=O)OC(C)C)[nH]c2c1C(=O)CCC2	> 4 mM (inactive)
Cc1nn2c(nc1=O)SCC(c1ccccc1)=N2	> 4 mM (inactive)
Nc1ccc(Oc2ccccc2)nc1	> 4 mM (inactive)
COc1cc2c(cc1OC)-c1nnnn1C(C)(C)C2	> 4 mM (inactive)

Structure (SMILES)	Kd
CCOc1nc(C)ccc1-c1noc(-c2ccco2)n1	> 4 mM (inactive)
CSc1nnc(CN2CCSCC2)n1C	> 4 mM (inactive)
COc1ccc(C(O)c2nccn2C)cc1 (stereo unspecified)	> 4 mM (inactive)
CN1CCOc2cc(C(=O)O)ccc21	> 4 mM (inactive)
CN1CCc2c(sc(N)c2C#N)C1	> 4 mM (inactive)
CC(=O)OC1CCC2(O)CC1(C)CCC1C2CC1(C)C (stereo unspecified)	> 4 mM (inactive)
Cc1ccc(C(=O)NC2=NCCS2)o1	> 4 mM (inactive)
C[C@H](CCC(=O)O)[C@H]1CCC2C3C(CC[C@@]21C)[C@@]1(C)CC[C@@H](O)C[C@H]1C[C@@H]3O (stereo partly specified)	> 4 mM (inactive)
Cc1occc1C(=O)Nc1nnc(C(F)(F)F)s1	> 4 mM (inactive)
COc1ccc2c(C)cc(=O)oc2c1	> 4 mM (inactive)
CCc1c(C)[nH]c(=S)c(C(N)=O)c1C	> 4 mM (inactive)
COc1cc(O)c2c(c1)C(=O)c1cc(C)cc(O)c1C2=O	> 4 mM (inactive)
O=[N+]([O-])c1cccc2c1nnn2C(CO)OCCO (stereo unspecified)	> 4 mM (inactive)
O=C(Nc1ccc2c(c1)CCC2)c1cnccn1	> 4 mM (inactive)
O=C(O)Cn1nnnc1-c1ccc(F)cc1	> 4 mM (inactive)
COc1cc(-c2nnc(NC(C)=O)o2)cc(OC)c1OC	> 4 mM (inactive)
Cc1noc(C)c1C(=O)Nc1cccnc1	> 4 mM (inactive)
NC(=O)c1ccc(-c2ccccn2)s1	> 4 mM (inactive)
COC(=O)CC1C(C)(C)C(OC(C)=O)[C@@H]2[C@@H](OC(C)=O)[C@]34O[C@@]2(O)[C@]1(C)C3CC[C@]1(C)C4=CC(=O)O[C@H]1c1ccoc1 (stereo partly specified)	> 4 mM (inactive)
Cc1n[nH]c(=S)n(/N=C/c2cccs2)c1=O	> 4 mM (inactive)
N#Cc1cn(CC(=O)N2CCCC2)c2ccccc12	> 4 mM (inactive)
c1ccc(Cn2c(Nn3cnnc3)nc3ccccc32)cc1	> 4 mM (inactive)
Nc1ccc(C2SCCS2)cc1	> 4 mM (inactive)
Oc1cc2c(cc1O)C1c3ccc(O)c(O)c3OCC1(O)C2 (stereo unspecified)	> 4 mM (inactive)
O=C(CS(=O)(=O)c1ccccc1)Nc1nccs1	> 4 mM (inactive)

Structure (SMILES)	Kd
O=C(CC1SC(=O)NC1=O)Nc1ccccc1 (stereo unspecified)	> 4 mM (inactive)
CC(C)=CCOc1cc2oc(=O)ccc2cc1O	> 4 mM (inactive)
Cn1c(CO)nc2ccccc21	> 4 mM (inactive)
CCOC(=O)Cn1cnc2sc3c(c2c1=O)CCC3	> 4 mM (inactive)
CC(=O)Nc1ccc(Oc2nc(C)cc(C)n2)cc1	> 4 mM (inactive)
Cc1cc(C(=O)NCc2ccccc2Br)no1	> 4 mM (inactive)
CC(=O)c1cccc(NS(=O)(=O)N2CCCCC2)c1	> 4 mM (inactive)
COc1cc(O)cc(/C=C/c2ccccc2)c1	> 4 mM (inactive)
O=C(Oc1ccc(-c2nnco2)cc1)N1CCOCC1	> 4 mM (inactive)
CCNS(=O)(=O)c1cc(Br)ccc1OC	> 4 mM (inactive)
CCOC(=O)c1c(SC)nc(=O)[nH]c1C	> 4 mM (inactive)
CC(=O)c1c(O)n(C)c(=S)n(C)c1=O	> 4 mM (inactive)
O=c1c2ccccc2nc2n1CCC2O (stereo unspecified)	> 4 mM (inactive)
N#Cc1nc(-c2ccccc2Cl)oc1N1CCOCC1	> 4 mM (inactive)
CN1CCC(NC(=O)c2cnccn2)CC1	> 4 mM (inactive)
Cn1c(=O)c2c(ncn2CCNC2=NCCC2)n(C)c1=O	> 4 mM (inactive)
CC(=O)c1nnc2cc(C)nn2c1C	> 4 mM (inactive)
Cc1cc(N2CCN(C)CC2)ncn1	> 4 mM (inactive)
Nc1ncnc(NCc2cccnc2)c1[N+](=O)[O-]	> 4 mM (inactive)
O=C(O)Cn1c(=O)sc2ccccc21	> 4 mM (inactive)
C=C1CCC2C(CC2(C)C)C(=O)CCC1O (stereo unspecified)	> 4 mM (inactive)
Cc1nn(-c2ccccc2)nc1C(=O)O	> 4 mM (inactive)
OC1CCN(C(=S)NC2CC2)CC1	> 4 mM (inactive)
COc1cc2c(cc1OC)C1(O)C(=O)c3ccc(O)c(C(=O)O)c3OC1CO2 (stereo unspecified)	> 4 mM (inactive)
NC(=O)C1CCN(CN2C(=O)c3ccccc3C2=O)CC1	> 4 mM (inactive)

Structure (SMILES)	Kd
O=C(CSc1ccccc1)N1CCC2(CC1)OCCO2	> 4 mM (inactive)
OCc1cccc2c1OCCO2	> 4 mM (inactive)
Oc1ccccc1N1CCOCC1	> 4 mM (inactive)
c1ccc2c(c1)CN1CCCC1=N2	> 4 mM (inactive)
Cn1c(O)c(C2=NC(=S)NC2=O)c2ccccc21	> 4 mM (inactive)
O=C(O)C1CCN(c2ccc(C(F)(F)F)cn2)CC1	> 4 mM (inactive)
OCc1ccc2ncccc2c1	> 4 mM (inactive)
CC(C)c1c(O)ccc2c1CCC1C(C)(C)CCC[C@]21C (stereo partly specified)	> 4 mM (inactive)
S=C=NCc1ccccc1	> 4 mM (inactive)
Cc1ccc(/C=N/n2c(C)nnc2C)cc1	> 4 mM (inactive)
CC1(C)Cc2nc3[nH]c(=S)[nH]c(=O)c3cc2CO1	> 4 mM (inactive)
Oc1cnc2ccccc2c1CN1CCOCC1	> 4 mM (inactive)
C=CCCCCCCCCCCCC(O)CC(O)COC(C)=O (stereo unspecified) (tested in a mixture with another compound)	> 4 mM (inactive)
CC(=O)N1CCc2cc(NC(=O)c3ccc(C)cc3)ccc21	> 4 mM (inactive)
C=C1CSc2nc(=O)c3c(C)c(C)sc3n21	> 4 mM (inactive)
O=C(O)CCC1=C2c3ccccc3CCN2C(=O)CC1	> 4 mM (inactive)
O=C(Nc1ccon1)c1csc2ccccc12	> 4 mM (inactive)
COc1ccc(NC(=O)C(N)=O)cc1Cl	> 4 mM (inactive)
COCc1cc(Cl)nc(-c2csc(C)n2)n1	> 4 mM (inactive)
O=C(COc1ccccc1O)NCCO	> 4 mM (inactive)
Cc1ccc(F)cc1NC(=O)c1ccc2c(c1)OCO2	> 4 mM (inactive)
COc1c2c(cc3occ(-c4ccc5c(c4)OCO5)c(=O)c13)OC(C)(C)C=C2	> 4 mM (inactive)
Cc1cccc(C)c1N1C(=O)CCC1=O	> 4 mM (inactive)
CCCNC(=O)c1cnc2n(c1=O)CCS2	> 4 mM (inactive)
O=C(Nc1ccc2c(c1)OCCO2)c1c(F)cccc1F	> 4 mM (inactive)

Structure (SMILES)	Kd
CN1C(CC(=O)c2ccccc2)CCCC1CC(O)c1ccccc1 (stereo unspecified)	> 4 mM (inactive)
O=C(O)[C@H](O)[C@@](O)(Cc1ccc(O)cc1)C(=O)O	> 4 mM (inactive)
CC1(C)C[C@@H]2C(=O)CC[C@H]3O[C@]3(C)CC[C@H]21	> 4 mM (inactive)
O=C(O)CS(=O)(=O)c1ccccc1[N+](=O)[O-]	> 4 mM (inactive)
c1ccc(-n2cnnc2)nc1	> 4 mM (inactive)
COc1ccc(-c2coc3c(OC)c(OC)cc(O)c3c2=O)cc1	> 4 mM (inactive)
CS(C)=C1C(=O)NC(=O)N(c2ccccc2)C1=O	> 4 mM (inactive)
Nc1ncnc2c1ncn2CCN1CCCCC1	> 4 mM (inactive)
O[C@H]1C=C2CCN3Cc4cc5c(cc4C(C23)[C@@H]1O)OCO5 (stereo partly specified)	> 4 mM (inactive)
Cn1c(=O)c2ccccc2n(Cc2ccccc2F)c1=O	> 4 mM (inactive)
CNC(=O)C1CCCN(S(C)(=O)=O)C1 (stereo unspecified)	> 4 mM (inactive)
O=C(O)c1ccc(Oc2ccccc2)nc1	> 4 mM (inactive)
Cc1nn(C)c2sc(C(=O)O)cc12	> 4 mM (inactive)
CC(=O)c1cc(C(N)=O)c(=S)[nH]c1C	> 4 mM (inactive)
Nc1nc2ccc(C(=O)O)cc2s1	> 4 mM (inactive)
OCc1ncoc1-c1ccccc1	> 4 mM (inactive)
COc1cc(-c2coc3cc(OCc4ccccc4)c(OC)c(O)c3c2=O)cc(O)c1OC	> 4 mM (inactive)
COc1cc2c(cc1OC)C1Cc3ccc(OC)c(OC)c3CN1CC2 (stereo unspecified)	> 4 mM (inactive)
Nc1ncnc2c1ncn2CCN1CCOCC1	> 4 mM (inactive)
Cc1nnc(SCC(N)=O)c2ccccc12	> 4 mM (inactive)
CNC(=O)C1COc2ccccc2O1 (stereo unspecified)	> 4 mM (inactive)
